In the NIST ThermoML archive (doi:10.1016/j.fluid.2015.07.030):
± gives the expanded uncertainty stated by the source.

Test: refractive index (other wavelength) (dimensionless); xn = mol fraction of the nth substance listed
Conditions: 95.99 kPa, Liquid, Standard Abbe refractometry

OCCOCCOCCO [triethylene glycol] + O
refractive index
Conditions	Wavelength=404.7 nm	Wavelength=435.8 nm	Wavelength=486.1 nm	Wavelength=546.1 nm	Wavelength=587.6 nm	Wavelength=589.3 nm	Wavelength=632.8 nm	Wavelength=644 nm	Wavelength=706.5 nm
298.15 K, x2 = 0	–	–	–	1.45629 ± 0.00033	1.45447 ± 0.00033	1.4544 ± 0.00033	1.45284 ± 0.00033	1.45249 ± 0.00033	1.45075 ± 0.00033
298.15 K, x2 = 0.1056	–	–	–	1.45488 ± 0.00033	1.45307 ± 0.00033	1.453 ± 0.00033	1.45145 ± 0.00033	1.45109 ± 0.00033	1.44937 ± 0.00033
298.15 K, x2 = 0.2069	–	–	–	1.45318 ± 0.00032	1.45138 ± 0.00032	1.45132 ± 0.00032	1.44978 ± 0.00032	1.44942 ± 0.00032	1.44768 ± 0.00032
298.15 K, x2 = 0.3104	–	–	–	1.44993 ± 0.00032	1.44814 ± 0.00032	1.44807 ± 0.00032	1.44653 ± 0.00032	1.44617 ± 0.00032	1.44445 ± 0.00032
298.15 K, x2 = 0.4844	–	–	–	1.44606 ± 0.00032	1.44428 ± 0.00032	1.44422 ± 0.00032	1.44269 ± 0.00032	1.44234 ± 0.00032	1.44065 ± 0.00032
298.15 K, x2 = 0.5016	–	–	1.44841 ± 0.00032	1.44506 ± 0.00032	1.44328 ± 0.00032	1.44322 ± 0.00032	1.44169 ± 0.00032	1.44134 ± 0.00032	1.43966 ± 0.00032
298.15 K, x2 = 0.5952	–	–	1.44171 ± 0.00032	1.43842 ± 0.00032	1.43668 ± 0.00032	1.43661 ± 0.00032	1.4351 ± 0.00032	1.43475 ± 0.00032	1.43307 ± 0.00032
298.15 K, x2 = 0.6016	–	–	1.44175 ± 0.00032	1.43845 ± 0.00032	1.43673 ± 0.00032	1.43666 ± 0.00032	1.43516 ± 0.00032	1.43481 ± 0.00032	1.4331 ± 0.00032
298.15 K, x2 = 0.6788	–	–	1.43522 ± 0.00032	1.43197 ± 0.00032	1.43025 ± 0.00032	1.43019 ± 0.00032	1.4287 ± 0.00032	1.42835 ± 0.00032	1.42668 ± 0.00032
298.15 K, x2 = 0.7835	–	–	1.42571 ± 0.00032	1.42254 ± 0.00032	1.42088 ± 0.00032	1.42082 ± 0.00032	1.41936 ± 0.00032	1.41901 ± 0.00032	1.41733 ± 0.00032
298.15 K, x2 = 0.8184	–	–	1.42045 ± 0.00032	1.41732 ± 0.00032	1.41568 ± 0.00032	1.41562 ± 0.00032	1.41417 ± 0.00032	1.41382 ± 0.00032	1.41213 ± 0.00032
298.15 K, x2 = 0.8473	–	–	1.41417 ± 0.00032	1.41108 ± 0.00032	1.40947 ± 0.00032	1.40941 ± 0.00032	1.40798 ± 0.00032	1.40763 ± 0.00032	1.40596 ± 0.00032
298.15 K, x2 = 0.8719	–	–	1.40723 ± 0.00032	1.40421 ± 0.00032	1.40261 ± 0.00032	1.40255 ± 0.00032	1.40113 ± 0.00032	1.40079 ± 0.00032	1.39912 ± 0.00032
298.15 K, x2 = 0.8926	–	–	1.3994 ± 0.00032	1.39645 ± 0.00032	1.39488 ± 0.00032	1.39482 ± 0.00032	1.39343 ± 0.00032	1.3931 ± 0.00032	1.39147 ± 0.00032
298.15 K, x2 = 0.9106	–	–	1.39379 ± 0.00032	1.39086 ± 0.00032	1.3893 ± 0.00032	1.38924 ± 0.00032	1.38785 ± 0.00032	1.38752 ± 0.00032	1.38588 ± 0.00032
298.15 K, x2 = 0.9254	–	–	1.3833 ± 0.00032	1.38042 ± 0.00032	1.37889 ± 0.00032	1.37884 ± 0.00032	1.37748 ± 0.00032	1.37714 ± 0.00032	1.37553 ± 0.00032
298.15 K, x2 = 0.9303	–	–	1.38472 ± 0.00031	1.38187 ± 0.00031	1.38035 ± 0.00031	1.38029 ± 0.00031	1.37892 ± 0.00031	1.37859 ± 0.00031	1.37697 ± 0.00031
298.15 K, x2 = 0.9391	–	–	1.38066 ± 0.00032	1.37781 ± 0.00032	1.37628 ± 0.00032	1.37622 ± 0.00032	1.37485 ± 0.00032	1.37452 ± 0.00032	1.3729 ± 0.00032
298.15 K, x2 = 0.951	–	–	1.37385 ± 0.00031	1.37104 ± 0.00031	1.36953 ± 0.00031	1.36947 ± 0.00031	1.36812 ± 0.00031	1.3678 ± 0.00031	1.3662 ± 0.00032
298.15 K, x2 = 0.9599	–	–	1.36797 ± 0.00031	1.36514 ± 0.00031	1.36364 ± 0.00031	1.36359 ± 0.00031	1.36225 ± 0.00031	1.36139 ± 0.00031	1.36035 ± 0.00031
298.15 K, x2 = 0.9708	–	–	1.35998 ± 0.00031	1.35727 ± 0.00031	1.35581 ± 0.00031	1.35576 ± 0.00031	1.35444 ± 0.00031	1.35412 ± 0.00031	1.35254 ± 0.00031
298.15 K, x2 = 0.979	–	–	1.35488 ± 0.00031	1.35218 ± 0.00031	1.35072 ± 0.00031	1.35066 ± 0.00031	1.34937 ± 0.00031	1.34905 ± 0.00031	1.34751 ± 0.00031
298.15 K, x2 = 0.9867	–	–	1.34888 ± 0.00031	1.34617 ± 0.00031	1.34473 ± 0.00031	1.34467 ± 0.00031	1.3434 ± 0.00031	1.34308 ± 0.00031	1.34153 ± 0.00031
298.15 K, x2 = 0.9936	–	–	1.34258 ± 0.00031	1.33995 ± 0.00031	1.33852 ± 0.00031	1.33847 ± 0.00031	1.3372 ± 0.00031	1.3369 ± 0.00031	1.3354 ± 0.00031
303.15 K, x2 = 0	1.4657 ± 0.00033	1.46213 ± 0.00033	1.45796 ± 0.00033	1.45455 ± 0.00033	1.45273 ± 0.00033	–	–	–	–
303.15 K, x2 = 0.1056	1.4643 ± 0.00033	1.46075 ± 0.00033	1.4566 ± 0.00033	1.45317 ± 0.00033	1.45138 ± 0.00033	–	–	–	–
303.15 K, x2 = 0.2069	1.46262 ± 0.00032	1.4591 ± 0.00032	1.45496 ± 0.00032	1.45155 ± 0.00032	1.44975 ± 0.00032	–	–	–	–
303.15 K, x2 = 0.3104	1.45889 ± 0.00032	1.45541 ± 0.00032	1.45129 ± 0.00032	1.4479 ± 0.00032	1.44612 ± 0.00032	–	–	–	–
303.15 K, x2 = 0.4844	1.45533 ± 0.00032	1.4519 ± 0.00032	1.4478 ± 0.00032	1.44445 ± 0.00032	1.44268 ± 0.00032	–	–	–	–
303.15 K, x2 = 0.5016	1.45432 ± 0.00032	1.4509 ± 0.00032	1.44681 ± 0.00032	1.44347 ± 0.00032	1.4417 ± 0.00032	–	–	–	–
303.15 K, x2 = 0.5952	1.44749 ± 0.00032	1.44412 ± 0.00032	1.44014 ± 0.00032	1.43687 ± 0.00032	1.43513 ± 0.00032	–	–	–	–
303.15 K, x2 = 0.6016	1.44759 ± 0.00032	1.44421 ± 0.00032	1.44025 ± 0.00032	1.43697 ± 0.00032	1.43525 ± 0.00032	–	–	–	–
303.15 K, x2 = 0.6788	1.44091 ± 0.00032	1.43757 ± 0.00032	1.4337 ± 0.00032	1.43047 ± 0.00032	1.42877 ± 0.00032	–	–	–	–
303.15 K, x2 = 0.7835	1.4314 ± 0.00032	1.4281 ± 0.00032	1.42435 ± 0.00032	1.42118 ± 0.00032	1.41951 ± 0.00032	–	–	–	–
303.15 K, x2 = 0.8184	1.42604 ± 0.00032	1.4228 ± 0.00032	1.4191 ± 0.00032	1.41598 ± 0.00032	1.41434 ± 0.00032	–	–	–	–
303.15 K, x2 = 0.8473	1.41954 ± 0.00032	1.41636 ± 0.00032	1.41271 ± 0.00032	1.40964 ± 0.00032	–	–	–	–	–
303.15 K, x2 = 0.8719	1.41258 ± 0.00032	1.40944 ± 0.00032	1.40585 ± 0.00032	1.40283 ± 0.00032	–	–	–	–	–
303.15 K, x2 = 0.8926	1.4048 ± 0.00032	1.40173 ± 0.00032	1.39821 ± 0.00032	1.39527 ± 0.00032	–	–	–	–	–
303.15 K, x2 = 0.9106	1.39915 ± 0.00032	1.39612 ± 0.00032	1.39265 ± 0.00032	1.38973 ± 0.00032	–	–	–	–	–
303.15 K, x2 = 0.9254	1.38867 ± 0.00032	1.38572 ± 0.00032	1.38237 ± 0.00032	1.37951 ± 0.00032	–	–	–	–	–
303.15 K, x2 = 0.9303	1.38901 ± 0.00031	1.38707 ± 0.00031	1.38371 ± 0.00031	1.38085 ± 0.00031	–	–	–	–	–
303.15 K, x2 = 0.9391	1.38606 ± 0.00031	1.38312 ± 0.00031	1.37974 ± 0.00031	1.37691 ± 0.00031	–	–	–	–	–
303.15 K, x2 = 0.951	1.37929 ± 0.00031	1.37641 ± 0.00031	1.37311 ± 0.00031	1.3703 ± 0.00031	–	–	–	–	–
303.15 K, x2 = 0.9599	1.37327 ± 0.00031	1.37045 ± 0.00031	1.36721 ± 0.00031	1.36443 ± 0.00031	–	–	–	–	–
303.15 K, x2 = 0.9708	1.3651 ± 0.00031	1.36235 ± 0.00031	1.3592 ± 0.00031	1.35648 ± 0.00031	–	–	–	–	–
303.15 K, x2 = 0.979	1.36001 ± 0.00031	1.3573 ± 0.00031	1.35419 ± 0.00031	1.3515 ± 0.00031	–	–	–	–	–
303.15 K, x2 = 0.9867	1.3539 ± 0.00031	1.35126 ± 0.00031	1.34816 ± 0.00031	1.3455 ± 0.00031	–	–	–	–	–
303.15 K, x2 = 0.9936	1.3476 ± 0.00031	1.34502 ± 0.00031	1.34197 ± 0.00031	1.33934 ± 0.00031	–	–	–	–	–
